Assay results as given in PMC7170716 (Nature, 2020).

Tests used:
[1] = target: T1, M. thermoresistibile IrtAB (full-length) (Mycolicibacterium thermoresistibile, UniProt G7CBF5+G7CBF6); assay: ATPase stimulation in nanodiscs, malachite green; type: biochemical; details: 2.5 mM ATP, 10 mM MgSO4, 37 °C, acyl chain length not defined
T1 sequence (G7CBF5 1-908): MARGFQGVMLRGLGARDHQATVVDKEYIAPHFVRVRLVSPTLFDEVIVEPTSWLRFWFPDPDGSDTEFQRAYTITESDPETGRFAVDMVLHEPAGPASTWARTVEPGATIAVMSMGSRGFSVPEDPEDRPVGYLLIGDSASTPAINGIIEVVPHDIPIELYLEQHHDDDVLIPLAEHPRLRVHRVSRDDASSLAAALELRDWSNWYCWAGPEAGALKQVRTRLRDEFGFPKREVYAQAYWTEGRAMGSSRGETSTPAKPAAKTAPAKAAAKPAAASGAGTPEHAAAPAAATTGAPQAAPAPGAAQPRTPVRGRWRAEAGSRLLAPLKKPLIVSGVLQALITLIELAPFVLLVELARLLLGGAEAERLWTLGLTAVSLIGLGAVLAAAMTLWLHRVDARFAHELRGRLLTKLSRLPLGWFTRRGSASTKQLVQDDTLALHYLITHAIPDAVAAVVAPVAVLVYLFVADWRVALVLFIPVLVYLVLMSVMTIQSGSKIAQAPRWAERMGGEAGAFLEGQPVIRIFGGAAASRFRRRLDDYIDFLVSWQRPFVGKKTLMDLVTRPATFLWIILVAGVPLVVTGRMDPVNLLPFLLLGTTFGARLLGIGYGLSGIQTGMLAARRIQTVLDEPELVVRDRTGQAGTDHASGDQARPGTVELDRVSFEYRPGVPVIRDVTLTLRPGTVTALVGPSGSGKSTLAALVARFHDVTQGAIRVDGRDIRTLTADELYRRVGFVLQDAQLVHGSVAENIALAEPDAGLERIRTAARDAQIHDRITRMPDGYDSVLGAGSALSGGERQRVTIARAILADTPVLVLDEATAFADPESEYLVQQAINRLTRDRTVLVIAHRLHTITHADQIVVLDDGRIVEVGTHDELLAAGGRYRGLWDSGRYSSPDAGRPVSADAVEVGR
T1 sequence (G7CBF6 1-579): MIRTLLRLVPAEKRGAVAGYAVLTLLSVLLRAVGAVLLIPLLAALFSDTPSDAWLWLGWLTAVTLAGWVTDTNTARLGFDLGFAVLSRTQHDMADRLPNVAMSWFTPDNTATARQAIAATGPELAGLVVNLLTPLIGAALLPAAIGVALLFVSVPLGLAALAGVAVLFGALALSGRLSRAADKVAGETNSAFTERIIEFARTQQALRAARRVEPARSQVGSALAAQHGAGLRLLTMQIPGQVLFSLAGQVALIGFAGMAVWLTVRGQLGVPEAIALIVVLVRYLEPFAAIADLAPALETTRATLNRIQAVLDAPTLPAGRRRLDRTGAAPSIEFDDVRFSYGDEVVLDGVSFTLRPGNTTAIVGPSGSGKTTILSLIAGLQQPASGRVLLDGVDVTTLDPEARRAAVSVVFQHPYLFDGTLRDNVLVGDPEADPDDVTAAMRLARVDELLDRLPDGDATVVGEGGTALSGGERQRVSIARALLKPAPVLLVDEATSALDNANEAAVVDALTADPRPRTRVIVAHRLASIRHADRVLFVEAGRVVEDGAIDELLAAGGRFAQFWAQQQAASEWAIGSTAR

M. smegmatis SID = target: T2, M. smegmatis SID (Mycolicibacterium smegmatis, UniProt A0R6H8); assay: SPR, biotinylated SID on chip, equilibrium fit; type: binding; details: HPLC-purified Fe-cMBT (MW 799 Da), 0-100 μM; single experiment
T2 sequence (A0R6H8 1-250 limits assumed): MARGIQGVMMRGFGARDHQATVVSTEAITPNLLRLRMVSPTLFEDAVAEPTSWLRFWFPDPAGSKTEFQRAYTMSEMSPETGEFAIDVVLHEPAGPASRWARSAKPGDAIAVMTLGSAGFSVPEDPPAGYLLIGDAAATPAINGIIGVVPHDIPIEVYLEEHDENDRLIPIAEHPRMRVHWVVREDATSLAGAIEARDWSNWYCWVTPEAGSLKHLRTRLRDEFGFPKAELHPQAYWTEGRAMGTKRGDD

Row | Substance | fold ATPase stimulation ([1]; Fe-MBT 0.5-40 μM) | Kd (M. smegmatis SID) | fold ATPase stimulation ([1]; Fe-cMBT 0.5-40 μM)
1 | Fe-MBT | > 38 fold | – | –
2 | Fe-cMBT | – | > 200 µM | > 10 fold
